Measurements published in patent publication US20040224958A1, “Pyridopyrimidinone derivatives for treatment of neurodegenerative disease” (priority 2000, published 2004).
Where two headings read alike, the source gives them in different places.

How the values were obtained:
Cdk5/p25 = Cdk5/p25 (Homo sapiens, UniProt Q00535); assay: Cyclin-Dependent Kinase 5 High Throughput Screening (cdk5-HTS) Assay; assay type: biochemical; settings: high throughput screen
Procedure, shortened: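 IC50 determined from 33P incorporation into GST-RbCOOH captured on glutathione plates and read by scintillation counting. Reaction: 1.0 μg/mL Cdk5/p25, 20 μM [γ33P]ATP, pH 7.4 Tris buffer with MgCl2 and DTT, 30 min at room temperature, stopped with EDTA.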

cdk2/cyclinA = cdk2/cyclinA (Homo sapiens, UniProt P24941); assay: Cyclin-Dependent Kinase Assay cdk2/cyclinA
cdk4/D = cdk4/D (Homo sapiens, UniProt P11802); assay: Cyclin-Dependent Kinase 4 (cdk4) Assay; assay type: biochemical; settings: read-out: cdk4/D IC50
cdk2/cyclinE = cdk2/cyclinE (Homo sapiens, UniProt P24941); assay: Cyclin-Dependent Kinase Assay cdk2/cyclinE
cdc2/cyclinB = cdc2/cyclinB (Homo sapiens, UniProt P06493); assay: Cyclin-Dependent Kinase Assay cdc2/cyclinB
cdc2/cyclinB, sequence (P06493 whole entry): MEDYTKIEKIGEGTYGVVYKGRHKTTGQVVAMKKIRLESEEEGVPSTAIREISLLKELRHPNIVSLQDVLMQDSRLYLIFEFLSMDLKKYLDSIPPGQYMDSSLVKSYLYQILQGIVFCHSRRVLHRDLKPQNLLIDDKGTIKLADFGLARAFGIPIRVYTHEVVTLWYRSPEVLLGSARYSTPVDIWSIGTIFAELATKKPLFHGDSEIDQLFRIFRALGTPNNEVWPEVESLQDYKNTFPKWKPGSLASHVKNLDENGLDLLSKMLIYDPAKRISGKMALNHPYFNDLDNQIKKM
cdc2/cyclinB, sequence (P14635 whole entry, further chain): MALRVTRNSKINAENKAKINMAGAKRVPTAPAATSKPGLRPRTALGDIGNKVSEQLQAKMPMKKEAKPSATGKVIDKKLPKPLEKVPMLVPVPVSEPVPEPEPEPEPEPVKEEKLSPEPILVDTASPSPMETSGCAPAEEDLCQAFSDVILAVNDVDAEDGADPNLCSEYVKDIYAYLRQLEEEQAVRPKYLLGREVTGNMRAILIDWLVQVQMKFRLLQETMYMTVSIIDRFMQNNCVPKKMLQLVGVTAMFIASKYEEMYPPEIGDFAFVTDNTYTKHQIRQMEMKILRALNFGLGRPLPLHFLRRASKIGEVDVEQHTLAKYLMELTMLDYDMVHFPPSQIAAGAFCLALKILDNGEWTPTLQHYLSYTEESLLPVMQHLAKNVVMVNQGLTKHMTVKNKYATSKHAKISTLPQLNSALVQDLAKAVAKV

cdk4/D, sequence (P11802 whole entry): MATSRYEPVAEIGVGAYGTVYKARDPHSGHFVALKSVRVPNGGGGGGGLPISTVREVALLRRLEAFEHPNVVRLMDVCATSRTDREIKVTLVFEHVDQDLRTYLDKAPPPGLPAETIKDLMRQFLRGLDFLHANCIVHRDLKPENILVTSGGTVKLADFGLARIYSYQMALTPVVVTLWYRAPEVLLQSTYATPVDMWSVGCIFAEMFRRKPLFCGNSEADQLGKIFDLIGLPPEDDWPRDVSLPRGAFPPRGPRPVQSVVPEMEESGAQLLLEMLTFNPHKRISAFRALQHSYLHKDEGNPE
cdk4/D, sequence (P24385 whole entry, further chain): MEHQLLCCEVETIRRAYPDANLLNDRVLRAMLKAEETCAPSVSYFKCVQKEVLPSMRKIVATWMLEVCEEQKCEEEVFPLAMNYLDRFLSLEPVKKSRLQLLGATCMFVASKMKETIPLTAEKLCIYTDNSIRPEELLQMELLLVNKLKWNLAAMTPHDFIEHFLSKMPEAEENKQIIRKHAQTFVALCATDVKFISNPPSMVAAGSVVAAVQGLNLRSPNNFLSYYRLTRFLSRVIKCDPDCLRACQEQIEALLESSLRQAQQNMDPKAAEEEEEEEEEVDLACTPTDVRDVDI

Compound	IC50 (Cdk5/p25)	IC50 (cdk2/cyclinA; cdk2/A IC50)	IC50 (cdk4/D)	IC50 (cdk2/cyclinE; cdk2/E IC50)	IC50 (cdc2/cyclinB)	IC50 (cdk2/cyclinA; read-out: cdk2/A IC50)	IC50 (cdk2/cyclinE; read-out: cdk2/E IC50)	IC50 (cdc2/cyclinB; read-out: cdk1/B IC50)
CCCn1c(=O)ccc2cnc(Nc3ccc(C#N)cc3)nc21 [Example 322, 4-(7-Oxo-8-propyl-7,8-dihydro-pyrido[2,3-d]pyrimidin-2-ylamino)-benzonitrile]	228 nM	554 nM	637 nM	300 nM	597 nM	–	–	–
CC(=O)Nc1cc(Nc2ncc3ccc(=O)n(C4CCCC4)c3n2)ccc1C [Example 558, N-[5-(8-Cyclopentyl-7-oxo-7,8-dihydro-pyrido[2,3-d]pyrimidin-2-ylamino)-2-methyl-phenyl]-acetamide]	220 nM	340 nM	30 nM	280 nM	510 nM	–	–	–
CCn1c(=O)ccc2cnc(Nc3cc(Cl)c(O)c(Cl)c3)nc21 [Example 291, 2-(3,5-Dichloro-4-hydroxy-phenylamino)-8-ethyl-8H-pyrido[2,3-d]pyrimidin-7-one]	445 nM	790 nM	2050 nM	443 nM	440 nM	–	–	–
CCCCn1c(=O)ccc2cnc(Nc3cc(OC)cc(C(F)(F)F)c3)nc21 [Example 396, 8-Butyl-2-(3-methoxy-5-trifluoromethyl-phenylamino)-8H-pyrido[2,3-d]pyrimidin-7-one]	590 nM	2600 nM	1100 nM	300 nM	600 nM	–	–	–
8-(1-Ethyl-propyl)-2-(3-trifluoromethyl-phenylamino)-8H-pyrido[2,3-d]pyrimidin-7-one [Example 485]	647 nM	–	232 nM	–	–	600 nM	131 nM	241 nM
CCCn1c(=O)ccc2cnc(Nc3ccc(F)c(C)c3)nc21 [Example 337, 2-(4-Fluoro-3-methyl-phenylamino)-8-propyl-8H-pyrido[2,3-d]pyrimidin-7-one]	150 nM	100 nM	430 nM	25 nM	150 nM	–	–	–
Cn1c(=O)ccc2cnc(Nc3ccccc3)nc21 [Example 285, 8-Methyl-2-phenylamino-81H-pyrido[2,3-d]pyrimidin-7-one]	255 nM	2800 nM	2750 nM	2270 nM	865 nM	–	–	–
8-Cyclopentyl-2-(2,4,6-trifluoro-phenylamino)-8H-pyrido[2,3-d]pyrimidin-7-one [Example 473]	67 nM	–	510 nM	–	–	330 nM	470 nM	400 nM
CCCn1c(=O)ccc2cnc(Nc3ccc(C#N)c(NC(C)=O)c3)nc21 [Example 340, N-[2-Cyano-5-(7-oxo-8-propyl-7,8-dihydro-pyrido[2,3-d]pyrimidin-2-ylamino)-phenyl]-acetamide]	170 nM	960 nM	310 nM	350 nM	1300 nM	–	–	–
O=c1ccc2cnc(Nc3ccc(Cl)c(Cl)c3)nc2n1C1CCCC1 [Example 532, 8-Cyclopentyl-2-(3,4-dichloro-phenylamino)-8H-pyrido[2,3-d]pyrimidin-7-one]	210 nM	780 nM	1500 nM	630 nM	510 nM	–	–	–
CCCCn1c(=O)ccc2cnc(Nc3ccc(F)c(F)c3)nc21 [Example 397, 8-Butyl-2-(3,4-difluoro-phenylamino)-8H-pyrido[2,3-d]pyrimidin-7-one]	81 nM	310 nM	250 nM	75 nM	290 nM	–	–	–
CCCn1c(=O)ccc2cnc(Nc3cccc([N+](=O)[O-])c3)nc21 [Example 330, 2-(3-Nitro-phenylamino)-8-propyl-8H-pyrido[2,3-d]pyrimidin-7-one]	435 nM	1150 nM	2100 nM	370 nM	940 nM	–	–	–
CCCCn1c(=O)ccc2cnc(Nc3cccc(I)c3)nc21 [Example 375, 8-Butyl-2-(3-iodo-phenylamino)-8H-pyrido[2,3-d]pyrimidin-7-one]	84.7 nM	408 nM	720 nM	48.9 nM	107 nM	–	–	–
CCC(CC)n1c(=O)ccc2cnc(Nc3ccc(C)c(NC(C)=O)c3)nc21 [Example 522, N-{5-[8-(1-Ethyl-propyl)-7-oxo-7,8-dihydro-pyrido[2,3-d]pyrimidin-2-ylamino]-2-methyl-phenyl}-acetamide]	300 nM	1600 nM	360 nM	320 nM	1100 nM	–	–	–

Further lines, with some results ahead:

IC50 (Cdk5/p25)	IC50 (cdk2/cyclinA; cdk2/A IC50)	IC50 (cdk4/D)	IC50 (cdk2/cyclinE; cdk2/E IC50)	IC50 (cdc2/cyclinB)	Compound	IC50 (cdk2/cyclinA; read-out: cdk2/A IC50)	IC50 (cdk2/cyclinE; read-out: cdk2/E IC50)	IC50 (cdc2/cyclinB; read-out: cdk1/B IC50)
8.5 nM	52 nM	46 nM	20 nM	26.5 nM	CCC(C)n1c(=O)ccc2cnc(Nc3ccc4[nH]ncc4c3)nc21 (stereo not shown) [Example 448, 8-sec-Butyl-2-(1H-indazol-5-ylamino)-8H-pyrido[2,3-d]pyrimidin-7-one]	–	–	–
29 nM	280 nM	1700 nM	100 nM	150 nM	CCC(C)n1c(=O)ccc2cnc(Nc3ccc(F)c(C(F)(F)F)c3)nc21 (stereo not shown) [Example 458, 8-sec-Butyl-2-(4-fluoro-3-trifluoromethyl-phenylamino)-8H-pyrido[2,3-d]pyrimidin-7-one]	–	–	–
74 nM	1700 nM	2400 nM	120 nM	320 nM	CCCn1c(=O)ccc2cnc(Nc3ccc(OC)c(O)c3)nc21 [Example 336, 2-(3-Hydroxy-4-methoxy-phenylamino)-8-propyl-8H-pyrido[2,3-d]pyrimidin-7-one]	–	–	–
19.7 nM	31.5 nM	25 nM	14 nM	18.5 nM	O=c1ccc2cnc(Nc3ccc4[nH]ncc4c3)nc2n1C1CCCC1 [Example 536, 8-Cyclopentyl-2-(1H-indazol-5-ylamino)-8H-pyrido[2,3-d]pyrimidin-7-one]	–	–	–
54 nM	400 nM	350 nM	520 nM	470 nM	Cc1ccc(Nc2ncc3ccc(=O)n(C(C)C)c3n2)cc1C [Example 434, 2-(3,4-Dimethyl-phenylamino)-8-isopropyl-8H-pyrido[2,3-d]pyrimidin-7-one]	–	–	–
9.7 nM	170 nM	66 nM	170 nM	160 nM	COc1ccc(Nc2ncc3ccc(=O)n(C(C)C)c3n2)cc1F [Example 422, 2-(3-Fluoro-4-methoxy-phenylamino)-8-isopropyl-8H-pyrido[2,3-d]pyrimidin-7-one]	–	–	–
64 nM	1340 nM	1390 nM	415 nM	555 nM	O=c1ccc2cnc(Nc3ccc(Cl)c(C(F)(F)F)c3)nc2n1C1CCCC1 [Example 546, 2-(4-Chloro-3-trifluoromethyl-phenylamino)-8-cyclopentyl-8H-pyrido[2,3-d]pyrimidin-7-one]	–	–	–
32.5 nM	83 nM	285 nM	26 nM	59 nM	CCCCn1c(=O)ccc2cnc(Nc3ccc4[nH]nnc4c3)nc21 [Example 380, 2-(1H-Benzotriazol-5-ylamino)-8-butyl-8H-pyrido[2,3-d]pyrimidin-7-one]	–	–	–
25 nM	310 nM	130 nM	110 nM	130 nM	CCC(C)n1c(=O)ccc2cnc(Nc3ccc(Cl)c(C)c3)nc21 (stereo not shown) [Example 456, 8-sec-Butyl-2-(4-chloro-3-methyl-phenylamino)-8H-pyrido[2,3-d]pyrimidin-7-one]	–	–	–
64 nM	1300 nM	150 nM	310 nM	330 nM	CCC(CC)n1c(=O)ccc2cnc(Nc3ccc(Br)c(Cl)c3)nc21 [Example 507, 2-(4-Bromo-3-chloro-phenylamino)-8-(1-ethyl-propyl)-8H-pyrido[2,3-d]pyrimidin-7-one]	–	–	–
18 nM	56 nM	130 nM	29 nM	62 nM	CCC(CC)n1c(=O)ccc2cnc(Nc3ccc4oc(=O)[nH]c4c3)nc21 [Example 517, 8-(1-Ethyl-propyl)-2-(2-oxo-2,3-dihydro-benzoxazol-5-ylamino)-8H-pyrido[2,3-d]pyrimidin-7-one]	–	–	–
44.4 nM	436 nM	260 nM	179 nM	151 nM	CCC(CC)n1c(=O)ccc2cnc(Nc3ccc(C)c(C)c3)nc21 [Example 491, 2-(3,4-Dimethyl-phenylamino)-8-(I-ethyl-propyl)-8H-pyrido[2,3-d]pyrimidin-7-one]	–	–	–
71 nM	670 nM	200 nM	230 nM	480 nM	CCC(CC)n1c(=O)ccc2cnc(Nc3ccc(OC(F)(F)F)cc3)nc21 [Example 515, 8-(1-Ethyl-propyl)-2-(4-trifluoromethoxy-phenylamino)-8H-pyrido[2,3-d]pyrimidin-7-one]	–	–	–
59.8 nM	446 nM	475 nM	122 nM	204 nM	CCCCn1c(=O)ccc2cnc(Nc3ccc(OC)c(Cl)c3)nc21 [Example 365, 8-Butyl-2-(3-chloro-4-methoxy-phenylamino)-8H-pyrido[2,3-d]pyrimidin-7-one]	–	–	–
32 nM	145 nM	214 nM	53 nM	82.5 nM	CCCn1c(=O)ccc2cnc(Nc3ccc4[nH]ncc4c3)nc21 [Example 324, 2-(1H-Indazol-5-ylamino)-8-propyl-8H-pyrido[2,3-d]pyrimidin-7-one]	–	–	–
